Results reported in US4499083A, “3-O-Demethyl derivatives of the istamycin B series of compounds” (Zaidan Hojin Biseibutsu Kagaku Kenkyu Kai, priority 1980, dated 1985).
In brackets after ≈: the same amount, converted by molar mass. Where two headings read alike, the source gives them in different places.

Key:
Pseudomonas aeruginosa = experiment: Antibacterial activity against Pseudomonas aeruginosa; format: cell-based
in vivo = settings: mouse, iv
Providencia sp. 2991 = experiment: Antibacterial spectrum, MIC by serial dilution on nutrient agar; format: cell-based; settings: 37° C., 17 hours, read-out: Minimum inhibitory concentration
Providencia sp. Pv16 = experiment: as above; format: cell-based; settings: 37° C., 17 hours, read-out: Minimum inhibitory concentration
Escherichia coli NIHJ = experiment: as above; format: cell-based; settings: read-out: Minimum inhibitory concentration
[1] = test system: Gram-negative and Gram-positive bacteria; experiment: Antibacterial activity, overall statement; format: cell-based
Method: The antibacterial spectra of 3-O-demethylistamycin B.sesquicarbonate and 3-O-demethyl-2"-N-formimidoylistamycin B.disulphate.trihydrate are shown in Table 2, along with that of istamycin B for comparison purposes.
*^1 Determined according to a standard serial dilution method on
nutrient agar plates which were incubated at 37° C. for 17 hours.

Serratia sp. SOU = experiment: Antibacterial spectrum, MIC by serial dilution on nutrient agar; format: cell-based; settings: 37° C., 17 hours, read-out: Minimum inhibitory concentration
mice = experiment: Acute toxicity by intravenous injection in mice
[2] = test system: Escherichia coli K-12 R388; experiment: Antibacterial spectrum, MIC by serial dilution on nutrient agar; format: cell-based; settings: K12R388, 17 h, read-out: Minimum inhibitory concentration
[3] = test system: Pseudomonas aeruginosa PST1; experiment: as above; format: cell-based; settings: 37° C., 17 hours, read-out: Minimum inhibitory concentration
resistant bacteria = experiment: Antibacterial activity against resistant bacteria; format: cell-based
Escherichia coli K-12 R5 = experiment: Antibacterial spectrum, MIC by serial dilution on nutrient agar; format: cell-based; settings: K12R5, 17 h, read-out: Minimum inhibitory concentration
[4] = test system: Pseudomonas maltophilia GN 907; experiment: as above; format: cell-based; settings: Stenotrophomonas maltophilia, GN907, 37° C., 17 hours, read-out: Minimum inhibitory concentration
[5] = test system: Micrococcus flavus FDA 16; experiment: as above; format: cell-based; settings: FDA16, 37° C., 17 hours, read-out: Minimum inhibitory concentration
[6] = test system: Pseudomonas aeruginosa GN315; experiment: as above; format: cell-based; settings: 37° C., 17 hours, read-out: Minimum inhibitory concentration
[7] = test system: Staphylococcus aureus FDA 209P; experiment: as above; format: cell-based; settings: FDA209P, 37° C., 17 hours, read-out: Minimum inhibitory concentration
[8] = test system: Salmonella enteritidis 1891; experiment: as above; format: cell-based; settings: Salmonella enterica, 37° C., 17 hours, read-out: Minimum inhibitory concentration
Escherichia coli W677 = experiment: as above; format: cell-based; settings: read-out: Minimum inhibitory concentration
[9] = test system: Pseudomonas aeruginosa TI-13; experiment: as above; format: cell-based; settings: TI13, 37° C., 17 hours, read-out: Minimum inhibitory concentration
[10] = test system: Staphylococcus epidermidis 109; experiment: as above; format: cell-based; settings: 37° C., 17 hours, read-out: Minimum inhibitory concentration
Bacillus anthracis = experiment: microbe, parasite or virus in culture; format: cell-based; settings: 17 h, read-out: Minimum inhibitory concentration
[11] = test system: Staphylococcus aureus Smith; experiment: Antibacterial spectrum, MIC by serial dilution on nutrient agar; format: cell-based; settings: read-out: Minimum inhibitory concentration
[12] = test system: Corynebacterium bovis 1810; experiment: as above; format: cell-based; settings: read-out: Minimum inhibitory concentration
[13] = test system: Pseudomonas aeruginosa B-13; experiment: as above; format: cell-based; settings: B13, 37° C., 17 hours, read-out: Minimum inhibitory concentration
[14] = test system: Klebsiella pneumoniae PCI602; experiment: as above; format: cell-based; settings: 37° C., 17 hours, read-out: Minimum inhibitory concentration
[15] = test system: Escherichia coli JR66/W677; experiment: as above; format: cell-based; settings: JR66/W677, 17 h, read-out: Minimum inhibitory concentration
[16] = test system: Gram-negative and Gram-positive bacteria; settings: relative to istamycin A; earlier work; cited from earlier work
[17] = listed as 3-O-demethylistamycin B
[18] = Escherichia coli NIHJ, nutrient agar, 37° C., 17 hours
[19] = Escherichia coli W677, nutrient agar, 37° C., 17 hours
[20] = Staphylococcus aureus Smith, nutrient agar, 37° C., 17 hours
[21] = Corynebacterium bovis 1810, nutrient agar, 37° C., 17 hours

SMILES: CNCC1CCC(N)C(OC2C(N)CC(O)C(N(C)C(=O)CN)C2O)O1 (centres unmarked) [3-O-Demethylistamycin B]
- effectiveness against Pseudomonas aeruginosa (in words) (Pseudomonas aeruginosa): effective against not only Pseudomonas aeruginosa
- MTD (in vivo): 160 mg/kg
- MIC (Providencia sp. 2991): 12.5 µg/mL (≈ 33.3 µM)
- MIC (Providencia sp. Pv16): 25 µg/mL (≈ 66.6 µM)
- MIC (Escherichia coli NIHJ; Escherichia coli, 17 h): 1.56 µg/mL (≈ 4.15 µM)
- antibacterial activity (in words) [1]: high antibacterial activity
- antibacterial activity (in words) [1, 17]: high antibacterial activity against a wide variety of Gram-negative and Gram-positive bacteria
- MIC (Serratia sp. SOU): 25 µg/mL (≈ 66.6 µM)
- toxicity (in words) (mice): low toxicity to animals
- toxicity (in words) (mice; [17]): low toxicity
- MIC [2]: 1.56 µg/mL (≈ 4.15 µM)
- MIC [3]: 50 µg/mL (≈ 133 µM)
- effectiveness against a variety of resistant bacteria (in words) (resistant bacteria): effective against not only Pseudomonas aeruginosa but also a variety of resistant bacteria
- MIC (Escherichia coli K-12 R5): 6.25 µg/mL (≈ 16.6 µM)
- MIC [4]: > 100 µg/mL
- MIC [5]: 3.13 µg/mL (≈ 8.34 µM)
- MIC [6]: 12.5 µg/mL (≈ 33.3 µM)
- MIC [7]: 0.39 µg/mL (≈ 1.04 µM)
- MIC [8]: 3.13 µg/mL (≈ 8.34 µM)
- MIC (Escherichia coli W677; Escherichia coli, W677, 17 h): 1.56 µg/mL (≈ 4.15 µM)
- MIC [9]: 12.5 µg/mL (≈ 33.3 µM)
- MIC [10]: 0.78 µg/mL (≈ 2.08 µM)
- MIC (Bacillus anthracis): < 0.2 µg/mL
- MIC ([11]; Staphylococcus aureus, 17 h): < 0.2 µg/mL
- MIC ([12]; Corynebacterium bovis, 1810, 17 h): 1.56 µg/mL (≈ 4.15 µM)
- MIC [13]: 50 µg/mL (≈ 133 µM)
- MIC [14]: 3.13 µg/mL (≈ 8.34 µM)
- MIC [15]: 6.25 µg/mL (≈ 16.6 µM)

SMILES: CNCC1CCC(N)C(OC2C(N)CC(O)C(N(C)C(=O)CNC=N)C2O)O1 (centres unmarked) [3-O-Demethyl-2"-N-formimidoylistamycin B]
- MTD (in vivo): 160 mg/kg
- MIC (Providencia sp. 2991): 12.5 µg/mL (≈ 31.1 µM)
- MIC (Providencia sp. Pv16): 25 µg/mL (≈ 62.1 µM)
- MIC (Escherichia coli NIHJ; [18]): 1.56 µg/mL (≈ 3.88 µM)
- antibacterial activity (in words) [1]: high antibacterial activity against a wide variety of Gram-negative and Gram-positive bacteria
- MIC (Serratia sp. SOU): > 100 µg/mL
- toxicity (in words) (mice): low toxicity to animals
- MIC [2]: 1.56 µg/mL (≈ 3.88 µM)
- MIC [3]: 25 µg/mL (≈ 62.1 µM)
- MIC (Escherichia coli K-12 R5): 3.13 µg/mL (≈ 7.78 µM)
- MIC [4]: > 100 µg/mL
- MIC [5]: < 0.2 µg/mL
- MIC [6]: 6.25 µg/mL (≈ 15.5 µM)
- MIC [7]: 0.2 µg/mL (≈ 0.497 µM)
- MIC [8]: 1.56 µg/mL (≈ 3.88 µM)
- MIC (Escherichia coli W677; [19]): 0.78 µg/mL (≈ 1.94 µM)
- MIC [9]: 6.25 µg/mL (≈ 15.5 µM)
- MIC [10]: 0.78 µg/mL (≈ 1.94 µM)
- MIC (Bacillus anthracis): < 0.2 µg/mL
- MIC [11, 20]: < 0.2 µg/mL
- MIC [12, 21]: 0.78 µg/mL (≈ 1.94 µM)
- MIC [13]: > 100 µg/mL
- MIC [14]: 1.56 µg/mL (≈ 3.88 µM)
- MIC [15]: 3.13 µg/mL (≈ 7.78 µM)

SMILES: CNCC1CCC(N)C(OC2C(N)CC(OC)C(N(C)C(=O)CN)C2O)O1 (centres unmarked) [Istamycin B, istamycin B]
- antibacterial activity compared with istamycin A [16]: higher antibacterial activity than istamycin A
- MIC (Providencia sp. 2991): 6.25 µg/mL (≈ 16 µM)
- MIC (Providencia sp. Pv16): 6.25 µg/mL (≈ 16 µM)
- MIC (Escherichia coli NIHJ; [18]): 1.56 µg/mL (≈ 4.01 µM)
- MIC (Serratia sp. SOU): 100 µg/mL (≈ 257 µM)
- MIC [2]: 1.56 µg/mL (≈ 4.01 µM)
- MIC [3]: 100 µg/mL (≈ 257 µM)
- MIC (Escherichia coli K-12 R5): 3.13 µg/mL (≈ 8.04 µM)
- MIC [4]: > 100 µg/mL
- MIC [5]: 6.25 µg/mL (≈ 16 µM)
- MIC [6]: 50 µg/mL (≈ 128 µM)
- MIC [7]: 0.39 µg/mL (≈ 1 µM)
- MIC [8]: 1.56 µg/mL (≈ 4.01 µM)
- MIC (Escherichia coli W677; [19]): 1.56 µg/mL (≈ 4.01 µM)
- MIC [9]: 25 µg/mL (≈ 64.2 µM)
- MIC [10]: 0.78 µg/mL (≈ 2 µM)
- MIC (Bacillus anthracis): < 0.2 µg/mL
- MIC [11, 20]: < 0.2 µg/mL
- MIC [12, 21]: 0.78 µg/mL (≈ 2 µM)
- MIC [13]: > 100 µg/mL
- MIC [14]: 1.56 µg/mL (≈ 4.01 µM)
- MIC [15]: 3.13 µg/mL (≈ 8.04 µM)
